Columns and labels:
[1] = target: T1, human mGluR2 receptor (Homo sapiens, UniProt Q14416); assay: [35S]GTPγS binding assay, mGluR2 positive allosteric modulation (GTPγS-PAM); assay type: biochemical; details: membranes from CHO cells transfected with human mGluR2; in presence of glutamate at EC25 concentration; averages of duplicate values of 11-concentration response curves; read-out: GTPgS - hR2 PAM pEC50 (converted)
T1 construct: expressed in transfected cells; host or cells: CHO cells (membrane preparation)
Text: The compounds provided in the present invention are positive allosteric modulators of mGluR2. These compounds appear to potentiate glutamate responses by binding to an allosteric site other than the glutamate binding site. The response of mGluR2 to a concentration of glutamate is increased when compounds of formula (I) are present. Compounds of formula (I) are expected to have their effect substantially at mGluR2 by virtue of their ability to enhance the function of the receptor. The behaviour of positive allosteric modulators tested at mGluR2 using the [^35S]GTPγS binding assay method described below and which is suitable for the identification of such compounds, and more particularly the compounds according to formula (I), are shown in Table 3.
[^35S]GTPγS Binding Assay
The [^35S]GTPγS binding assay is a functional membrane-based assay used to study G-protein coupled receptor (GPCR) function whereby incorporation of a non-hydrolysable form of GTP, [^35S]GTPγS (guanosine 5′-triphosphate, labelled with […] ^35S), is measured. The G-protein […] subunit catalyzes the exchange of guanosine 5′-diphosphate (GDP) by guanosine triphosphate (GTP) and on activation of the GPCR by an agonist, [^35S]GTPγS, becomes incorporated and cannot be cleaved to continue the exchange cycle (Harper (1998) Current Protocols in Pharmacology 2.6.1-10, John Wiley & Sons, Inc.). […] Here we describe the use of the [^35S]GTPγS binding assay using membranes from cells transfected with the human mGluR2 receptor and adapted from Schaffhauser et al ((2003) Molecular Pharmacology 4:798-810) for the detection of the positive allosteric modulation (PAM) properties of the compounds of this invention.
CHO-cells were cultured to pre-confluence and stimulated with 5 mM butyrate for 24 hours, prior to washing in PBS, and then collection by scraping in homogenisation buffer (50 mM Tris-HCl buffer, pH 7.4, 4° C.). Cell lysates were homogenized briefly (15s) using an ultra-turrax homogenizer. The homogenate was centrifuged at 23 500×g for 10 minutes and the supernatant discarded. The pellet was resuspended in 5 mM Tris-HCl, pH 7.4 and centrifuged again (30 000×g, 20 min, 4° C.). The final pellet was resuspended in 50 mM HEPES, pH 7.4 and stored at −80° C. in appropriate aliquots before use. Protein concentration was determined by the Bradford method (Bio-Rad, USA) with bovine serum albumin as standard.
Measurement of mGluR2 positive allosteric modulatory activity of test compounds in membranes containing human mGluR2 was performed using frozen membranes that were thawed and briefly homogenised prior to pre-incubation in 96-well microplates (15 μg/assay well, 30 minutes, 30° C.) in assay buffer (50 mM HEPES pH 7.4, 100 mM NaCl, 3 mM MgCl2, 50 μM GDP, 10 μg/ml saponin,) with increasing concentrations of positive allosteric modulator (from 0.3 nM to 50 μM) and either a minimal pre-determined concentration of glutamate (PAM assay), or no added glutamate. For the PAM assay, membranes were pre-incubated with glutamate at EC25 concentration, i.e. a concentration that gives 25% of the maximal response glutamate, and is in accordance to published data (Pin et al. (1999) Eur. J. Pharmacol. 375:277-294). After addition of [^35S]GTPγS (0.1 nM, f.c.) to achieve a total reaction volume of 200 μl, microplates were shaken briefly and further incubated to allow [^35S]GTPγS incorporation on activation (30 minutes, 30° C.). The reaction was stopped by rapid vacuum filtration over glass-fibre filter plates (Unifilter 96-well GF/B filter plates, Perkin-Elmer, Downers Grove, USA) microplate using a 96-well plate cell harvester (Filtermate, Perkin-Elmer, USA), and then by washing three times with 300 μl of ice-cold wash buffer (Na2PO4.2H2O 10 mM, NaH2PO4.H2O 10 mM, pH=7.4). […]

T1 sequence (Q14416 19-872): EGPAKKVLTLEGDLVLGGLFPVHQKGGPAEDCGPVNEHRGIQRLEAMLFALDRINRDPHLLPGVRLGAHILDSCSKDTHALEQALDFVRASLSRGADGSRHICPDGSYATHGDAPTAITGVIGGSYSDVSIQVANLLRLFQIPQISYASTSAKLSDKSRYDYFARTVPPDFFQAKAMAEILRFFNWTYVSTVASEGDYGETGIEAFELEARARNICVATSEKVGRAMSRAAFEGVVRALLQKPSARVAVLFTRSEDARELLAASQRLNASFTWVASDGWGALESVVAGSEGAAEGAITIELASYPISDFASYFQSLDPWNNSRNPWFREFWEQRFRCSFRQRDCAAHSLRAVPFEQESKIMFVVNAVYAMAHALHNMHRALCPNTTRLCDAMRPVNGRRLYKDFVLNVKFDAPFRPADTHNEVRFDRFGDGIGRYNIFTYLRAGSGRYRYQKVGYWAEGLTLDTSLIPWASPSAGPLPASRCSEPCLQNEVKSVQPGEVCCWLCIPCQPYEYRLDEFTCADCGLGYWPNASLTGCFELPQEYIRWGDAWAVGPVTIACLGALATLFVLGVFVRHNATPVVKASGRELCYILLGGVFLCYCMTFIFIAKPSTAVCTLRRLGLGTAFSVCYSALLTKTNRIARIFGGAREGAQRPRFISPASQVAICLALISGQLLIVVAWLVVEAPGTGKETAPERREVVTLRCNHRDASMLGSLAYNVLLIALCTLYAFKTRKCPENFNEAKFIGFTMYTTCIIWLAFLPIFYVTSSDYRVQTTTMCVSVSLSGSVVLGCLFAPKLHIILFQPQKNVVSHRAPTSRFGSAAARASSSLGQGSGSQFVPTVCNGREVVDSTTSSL

Row | EC50 [1] | melting point | SMILES
1 | 219 nM | > 300 °C | N#Cc1c(-c2ccc(NC3CCOCC3)c(Cl)c2)ccn(CCC2CC2)c1=O [Compound 6]
2 | 437 nM | – | N#Cc1c(-c2ccc(NC3CCOCC3)c(C(F)(F)F)c2)ccn(CCC2CC2)c1=O [Compound 7]
3 | 282 nM | – | N#Cc1c(-c2ccc(OC3CCOCC3)c(Cl)c2)ccn(CCC2CC2)c1=O [Compound 4, 4-[3-Chloro-4-(tetrahydro-pyran-4-yloxy)-phenyl]-1-(2-cyclopropyl-ethyl)-2-oxo-1,2-dihydro-pyridine-3-carbonitrile]
4 | 1580 nM | – | CC(C)CCn1ccc(-c2ccc(NC3CCOCC3)cc2F)c(C#N)c1=O [Compound 10]
5 | 676 nM | – | N#Cc1c(-c2ccc(NC3CCOCC3)c(Cl)c2)ccn(CC2CC2)c1=O [Compound 2, 1-Cyclopropylmethyl-4-[3-chloro-4-(tetrahydro-pyran-4-ylamino)-phenyl]-2-oxo-1,2-dihydro-pyridine-3-carbonitrile]
6 | 2510 nM | 195 °C | CCCCn1ccc(-c2ccc(NC3CCOCC3)cc2)c(C#N)c1=O [Compound 8]
7 | 1230 nM | – | N#Cc1c(-c2ccc(NC3CCOCC3)c(C(F)(F)F)c2)ccn(CC2CC2)c1=O [Compound 3, 1-Cyclopropylmethyl-2-oxo-4-[4-(tetrahydro-pyran-4-ylamino)-3-trifluoromethyl-phenyl]-1,2-dihydro-pyridine-3-carbonitrile]
8 | 162 nM | – | CC(C)CCn1ccc(-c2ccc(OC3CCOCC3)c(Cl)c2)c(C#N)c1=O [Compound 5]
9 | 316 nM | – | CC(C)CCn1ccc(-c2ccc(NC3CCOCC3)c(Cl)c2)c(C#N)c1=O [Compound 12]
10 | 631 nM | 136 °C | CCCCn1ccc(-c2ccc(OC3CCOCC3)cc2F)c(C#N)c1=O [Compound 9]
11 | ~1000 nM | 249.5 °C | N#Cc1c(-c2ccc(NC3CCOCC3)c(F)c2)ccn(CC2CC2)c1=O [Compound 1, 1-Cyclopropylmethyl-4-[3-fluoro-4-(tetrahydro-pyran-4-ylamino)-phenyl]-2-oxo-1,2-dihydro-pyridine-3-carbonitrile]
12 | 398 nM | – | CC(C)CCn1ccc(-c2ccc(NC3CCOCC3)c(F)c2)c(C#N)c1=O [Compound 11]
